21 compounds from ChEMBL document CHEMBL3997846, “Synthesis and activity of nucleoside-based antiprotozoan compounds” (Bioorg Med Chem, 2017) can be followed below.

The subject of series [1] is Trypanosoma brucei rhodesiense. Description: Antitrypanosomal activity against bloodstream forms of Trypanosoma brucei rhodesiense STIB900 trypomastigotes after 72 hrs by alamar blue assay. The format is functional. To be noted: STIB900, 72 h.
For series [2], the system named is L6. Description: Cytotoxicity against rat L6 cells assessed as growth inhibition after 72 hrs by alamar blue assay. The format is cell-based. To be noted: L6, 72 h.
The nature of series [3]: Selectivity index, ratio of IC50 for rat L6 cells to IC50 for bloodstream forms of Trypanosoma brucei rhodesiense STIB900 trypomastigotes. The format is toxicity. To be noted: read-out: Ratio IC50.
For series [4], the system named is Trypanosoma cruzi. Description: Antitrypanosomal activity against Trypanosoma cruzi Tulahuen strain C2C4 amastigote forms harboring LacZ infected in rat L6 cells after 96 hrs by CPRG/Nonidet reagent based photometric method. The format is functional, cell-based. Conditions: Tulahuen strain C2C4, L6, 96 h.
Series [5] is described as follows: Selectivity index, ratio of IC50 for rat L6 cells to IC50 for Trypanosoma cruzi Tulahuen strain C2C4 amastigote forms harboring LacZ infected in rat L6 cells. The format is toxicity, cell-based. Conditions: read-out: Ratio IC50.
In series [6] the test system is Leishmania donovani. Description: Antileishmanial activity against Leishmania donovani MHOM/SD/62/ISCL2D axenic amastigotes after 72 hrs by alamar blue assay. The format is functional. For orientation: Resazurin is reduced to fluorescent resorufin, in cell work by metabolically active cells.
Series [7] in a line: Selectivity index, ratio of IC50 for rat L6 cells to IC50 for Leishmania donovani MHOM/SD/62/ISCL2D axenic amastigotes. The series is classed as toxicity. Conditions: read-out: Ratio IC50.
In series [8] the test system is Plasmodium falciparum. As to the kind of experiment: Antiplasmodial activity against chloroquine resistant Plasmodium falciparum K1 erythrocytic stage assessed as reduction in [3H]hypoxanthine incorporation after 48 hrs by liquid scintillation counting assay. The format is functional.
Series [9] in a line: Selectivity index, ratio of IC50 for rat L6 cells to IC50 for chloroquine resistant Plasmodium falciparum K1 erythrocytic stage. The format is toxicity. To be noted: read-out: Ratio IC50.

Where only a bound is given, the exact number is not on record here.

With `CNc1nc(Cl)c2ncn([C@@H]3O[C@H](C)[C@@H](O)[C@H]3O)c2n1`, the IC50 (commonly the concentration needed to halve the response being measured) in series [1] was 230 µM; in [2] it was 175 µM; in [4] it was 35 µM; in [6], above 335 µM; in [8], 150 µM. The selectivity ratio in series [3] was 0.8; in series [5], 5; in [7], below 0.5; in series [9] it was 1.
For the compound `CCCCCCCCCCCCCCCCOP(=O)([O-])OCC[N+](C)(C)C` [MILTEFOSINE], the IC50 in series [2] stood at 137 µM; in [6], 0.3 µM.
On to `CC(=O)O[C@@H]1[C@H](OC(C)=O)[C@@H](CI)O[C@H]1n1cnc2c(N)nc(Cl)nc21`, for which the half-inhibitory concentration (IC50) in series [1] amounted to 12 µM; in [2], 86 µM; in [4] it was 10 µM; in series [6], 15 µM; in series [8], 3.9 µM. For the same compound, the selectivity ratio in series [3] amounted to 7; in [5] it was 9; in series [7] it was 6; in [9] it was 22.
With `CSC[C@H]1O[C@@H](n2cnc3c(N)nc(F)nc32)[C@H](OC(C)=O)[C@@H]1OC(C)=O`, the IC50 worked out at 26 µM in series [1]; 15 µM in series [2]; 15 µM in [4]; 18 µM in series [6]; 2.8 µM in [8]. For the same compound, the selectivity ratio was determined as 0.6 in series [3], 1 in [5], 0.8 in series [7] and 5 in series [9].
Regarding `CNc1nc(NC)c2ncn([C@@H]3O[C@H](C)[C@@H](O)[C@H]3O)c2n1`, the IC50 is above 340 µM in [1]; 187 µM in [2]; 109 µM in series [4]; above 340 µM in series [6]; above 170 µM in series [8]. Further, the selectivity ratio in [3] is below 0.6; in series [5], 2; in series [7], below 0.6; in series [9], below 1.
With `CC(=O)O[C@@H]1[C@H](OC(C)=O)[C@@H](CN2C(=O)c3ccccc3C2=O)O[C@H]1n1cnc2c(N)nc(Cl)nc21`, the IC50 in [1] amounted to 161 µM; in [2] it was 144 µM; in series [4] it was 101 µM; in series [6], 139 µM; in series [8], 23 µM. Besides, the selectivity ratio in [3] was 0.9; in series [5], 1; in [7], 1; in series [9], 6.
Turning to `CNc1nc(N)nc2c1ncn2[C@@H]1O[C@H](C)[C@@H](O)[C@H]1O`, the IC50 in series [1] amounted to 127 µM; in series [2], 211 µM; in series [4] it was 15 µM; in series [6], 326 µM; in series [8], 19 µM. Besides, the selectivity ratio in series [3] came to 2; in series [5] it was 14; in [7], 0.6; in [9] it was 11.
With `CC(=O)NC[C@H]1O[C@@H](n2cnc3c(N)nc(Cl)nc32)[C@H](OC(C)=O)[C@@H]1OC(C)=O`, the IC50 was 113 µM in [1]; 190 µM in [2]; 125 µM in series [4]; above 230 µM in [6]; 102 µM in series [8]. Further, the selectivity ratio was 2 in series [3], 2 in series [5], below 0.8 in [7] and 2 in [9].
As for `Nc1nc(Cl)c2ccn([C@@H]3O[C@H](CO)[C@@H](O)[C@H]3O)c2n1`, the IC50 in series [1] was 0.13 µM; in series [2], 163 µM; in series [4], 3.4 µM; in [6], 0.06 µM; in series [8], 68 µM. In addition, the selectivity ratio in [3] worked out at 1250; in series [5], 48; in [7], 2720; in series [9], 2.
In the case of `CNc1nc(C#N)nc2c1ncn2[C@@H]1O[C@H](C)[C@@H](O)[C@H]1O`, the IC50 turned out to be 111 µM in series [1], 45 µM in series [4] and 148 µM in [6]. For the same compound, the selectivity ratio in series [3] worked out at 0.8; in series [5], 2; in [7], 0.6.
`CSC[C@H]1O[C@@H](n2cnc3c(N)nc(N=[N+]=[N-])nc32)[C@H](O)[C@@H]1O`: the IC50 was determined as 51 µM in series [1], 144 µM in [4] and 288 µM in series [6]. In addition, the selectivity ratio in series [3] was 5; in series [5] it was 2; in series [7], 0.8.
For `CCN(CC)CCCC(C)Nc1ccnc2cc(Cl)ccc12` (configuration not stated) [CHLOROQUINE], the IC50 in series [2] stood at 91 µM.
On to `CSC[C@H]1O[C@@H](n2cnc3c(N)nc(NN)nc32)[C@H](O)[C@@H]1O`, for which the IC50 worked out at 149 µM in [1], 157 µM in [4] and 173 µM in [6]. The selectivity ratio in series [3], in [5] and in [7] was 1 in each case.
As for `C[C@H]1O[C@@H](n2cnc3c(N)nc(F)nc32)[C@H](O)[C@@H]1O`, the 50% inhibitory concentration (IC50) was 65 µM in series [1], 7.1 µM in series [4] and 0.88 µM in [6]. The figures for the selectivity ratio in [3], in series [5] and in [7] were below 0.1, 0.3 and 2, respectively.
On to `CSC[C@H]1O[C@@H](n2cnc3c(N(C)N=O)nc(F)nc32)[C@H](O)[C@@H]1O`, for which the IC50 in [1] stood at 56 µM; in series [4] it was 129 µM; in [6], 190 µM. For the same compound, the selectivity ratio in series [3] is 2; in [5], 0.9; in [7], 0.6.
On to `CNc1nc(C#N)nc2c1ncn2[C@@H]1O[C@H](CSC)[C@@H](O)[C@H]1O`, for which the IC50 in [1] stood at 30 µM; in series [4], 25 µM; in series [6], 22 µM. For the same compound, the selectivity ratio in series [3] was found to be 0.8; in series [5] it was 1; in series [7], 1.
Consider `C[C@H]1O[C@@H](n2cnc3c(N)nc(N)nc32)[C@H](O)[C@@H]1O`, for which the IC50 in series [1] was 224 µM; in series [4], above 340 µM; in series [6], 51 µM. In addition, the results for the selectivity ratio in series [3], in [5] and in series [7] were 2, below 1 and 7, respectively.
On to `CSC[C@H]1O[C@@H](n2cnc3c(N)nc(C#N)nc32)[C@H](O)[C@@H]1O`, for which the IC50 in series [1] turned out to be 66 µM; in series [4] it was 150 µM; in series [6], 266 µM. In addition, the selectivity ratio in [3] turned out to be 2; in series [5], 1; in [7] it was 0.6.
In the case of `CNc1ncnc2c1ncn2[C@@H]1O[C@H](C)[C@@H](O)[C@H]1O`, the IC50 in series [1] was 206 µM; in series [4], 195 µM; in [6] it was above 380 µM. Besides, the selectivity ratio is 1 in series [3], 1 in [5] and below 0.7 in [7].
As for `O=C(Cn1ccnc1[N+](=O)[O-])NCc1ccccc1` [BENZNIDAZOLE], the IC50 in series [2] is above 385 µM; in series [4] it was 1.64 µM.
Turning to `C[C@H]1O[C@@H](n2cnc3c(N)nc(I)nc32)[C@H](O)[C@@H]1O`, the half-inhibitory concentration (IC50) came to 27 µM in series [1], 120 µM in [4] and 208 µM in [6]. Besides, the selectivity ratio was found to be 4 in [3], 0.9 in series [5] and 0.5 in [7].
